Test systems include OVCAR-8 ovarian; NCI-H522 lung; HCT-116 colon; MDA-MB-435; SF-268 CNS; ACHN renal; MALME-3M melanoma; HCT-15 colon; SN12C renal; HOP-92 NSCLC; MDA-N.
Test in all cases: NCI-60 cell line screen, 48 h

The values below come from PubChem BioAssay (NCI).

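96-well plates; 48 h exposure; 5 concentrations. Endpoints by linear interpolation between flanking doses. Not reached: highest tested concentration assigned. The concentration for 50% growth inhibition is given as GI50. TGI marks complete inhibition of growth.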

Regarding `Nc1nc(Cl)cc(NCC2(CO)CCC(Cc3ccccc3)C2)n1` (centres undefined), the TGI with OVCAR-8 ovarian was more than 100 µM; with NCI-H522 lung, 49 µM; in the experiment on HCT-116 colon, more than 100 µM; in the experiment with MDA-MB-435, 33.8 µM; in the experiment with SF-268 CNS, more than 100 µM; in the experiment with ACHN renal it was more than 100 µM. Further, the TGI in the experiment with MALME-3M melanoma is more than 71.9 µM; with HCT-15 colon it was more than 100 µM; in the experiment on SN12C renal, more than 100 µM; with HOP-92 NSCLC it was more than 93.8 µM; in the experiment with MDA-N it was more than 91.5 µM.
In the case of `CC(=O)Nc1ccc(CNc2cc(=O)[nH]c(=O)[nH]2)cc1`, the TGI in the experiment with OVCAR-8 ovarian, with NCI-H522 lung, in the experiment on HCT-116 colon, in the experiment with MDA-MB-435, in the experiment on SF-268 CNS and in the experiment on ACHN renal was more than 100 µM each time. The TGI in the experiment on MALME-3M melanoma, in the experiment with HCT-15 colon, in the experiment on SN12C renal, in the experiment with HOP-92 NSCLC and in the experiment on MDA-N was more than 100 µM throughout.
With `COc1ccc2c3c1OC1C(=O)C=CC4(O)C(C2)NCC[C@@]314` (some centres undefined), the TGI with OVCAR-8 ovarian was determined as 6.36 µM; with NCI-H522 lung, 1.99 µM; in the experiment on HCT-116 colon, 6.32 µM; in the experiment with MDA-MB-435 it was 5.79 µM; with SF-268 CNS, 7.55 µM; in the experiment on ACHN renal, 12.6 µM. Moreover, the TGI in the experiment on MALME-3M melanoma came to 2.81 µM; in the experiment with HCT-15 colon, 11.3 µM; in the experiment on SN12C renal, 4.42 µM; with HOP-92 NSCLC, 20.5 µM; with MDA-N, 4.91 µM.
Take `COC(=O)NCCc1[nH]nc2c1C(=O)C=C(Nc1ccccc1)C2=O`: the TGI in the experiment on OVCAR-8 ovarian is 40.2 µM; with NCI-H522 lung, 28.6 µM; in the experiment with HCT-116 colon, 54.9 µM; in the experiment on MDA-MB-435, 31.1 µM; in the experiment on SF-268 CNS, more than 100 µM; in the experiment with ACHN renal, more than 100 µM. In addition, the TGI was 25.5 µM in the experiment with MALME-3M melanoma; more than 100 µM with HCT-15 colon; more than 100 µM in the experiment with SN12C renal; 95.5 µM in the experiment on HOP-92 NSCLC; 33.2 µM in the experiment on MDA-N.
Consider `O=C1C2C=CC1C1C(=O)OC(=O)C21` (centres undefined), for which the TGI with OVCAR-8 ovarian, in the experiment with NCI-H522 lung, in the experiment on HCT-116 colon, in the experiment on MDA-MB-435, in the experiment on SF-268 CNS and in the experiment on ACHN renal was more than 100 µM each time. For the same molecule, the TGI in the experiment with MALME-3M melanoma, with HCT-15 colon, in the experiment on SN12C renal, in the experiment on HOP-92 NSCLC and in the experiment on MDA-N was more than 100 µM throughout.
Take `NNC(=O)c1c(Cl)c(Cl)c(Cl)c(Cl)c1-c1nc2ccccc2[nH]1`: the TGI with OVCAR-8 ovarian is more than 100 µM; with NCI-H522 lung, more than 100 µM; with HCT-116 colon, 32.6 µM; in the experiment on MDA-MB-435 it was 6.38 µM; in the experiment with SF-268 CNS, more than 100 µM; in the experiment with ACHN renal it was 67.2 µM. Moreover, the TGI is 37.9 µM in the experiment on MALME-3M melanoma; 40.9 µM in the experiment with HCT-15 colon; more than 100 µM with SN12C renal; 43.9 µM with HOP-92 NSCLC; 18.9 µM in the experiment on MDA-N.
On to `CC(C)OP(=O)(CN(C)/C(F)=N\C(F)(F)F)OC(C)C`, for which the TGI in the experiment on OVCAR-8 ovarian, in the experiment on NCI-H522 lung, in the experiment with HCT-116 colon, in the experiment on MDA-MB-435, in the experiment with SF-268 CNS and with ACHN renal was more than 100 µM in each case. In addition, the TGI in the experiment with MALME-3M melanoma, in the experiment on HCT-15 colon, in the experiment on SN12C renal, in the experiment on HOP-92 NSCLC and in the experiment on MDA-N was more than 100 µM each time.
Regarding `O=C1OC(c2ccc(O)c(Cl)c2)(c2ccc(O)c(Cl)c2)c2ccc(Br)c3cccc1c23` (tested in a mixture with another compound), the TGI with OVCAR-8 ovarian amounted to 51.9 µM; in the experiment with NCI-H522 lung, 35.7 µM; with HCT-116 colon, 36.3 µM; with MDA-MB-435 it was 34.3 µM; in the experiment on SF-268 CNS, 31.3 µM; with ACHN renal, 27.2 µM. Further, the TGI in the experiment on MALME-3M melanoma was 39.3 µM; in the experiment on HCT-15 colon it was 44 µM; with SN12C renal, 32 µM; in the experiment with HOP-92 NSCLC, 26.1 µM; in the experiment on MDA-N it was 45.9 µM. Besides, the GI50 is 17.8 µM in the experiment with NCI-H522 lung and 13.9 µM in the experiment on ACHN renal.
As to `COC(=O)C1=Nc2c(C)nn(-c3ccccc3)c2N=C(c2ccc(C)cc2)C1`, the TGI in the experiment with OVCAR-8 ovarian, in the experiment on NCI-H522 lung, in the experiment on HCT-116 colon, in the experiment on MDA-MB-435, in the experiment with SF-268 CNS and with ACHN renal was more than 10 µM each time. In addition, the TGI in the experiment with MALME-3M melanoma, in the experiment with HCT-15 colon, in the experiment on SN12C renal, in the experiment with HOP-92 NSCLC and with MDA-N was more than 10 µM in each case.
Consider `CCCN1C(=O)CCC2=C1CCc1c2ccc(Cl)c1Cl`, for which the TGI in the experiment on OVCAR-8 ovarian was more than 100 µM; with NCI-H522 lung, 91.4 µM; in the experiment on HCT-116 colon, more than 100 µM; with MDA-MB-435, more than 100 µM; in the experiment on SF-268 CNS, more than 100 µM; in the experiment on ACHN renal, more than 100 µM. For the same molecule, the TGI in the experiment with MALME-3M melanoma is more than 100 µM; in the experiment on HCT-15 colon, more than 100 µM; with SN12C renal, more than 100 µM; in the experiment with HOP-92 NSCLC, 56.6 µM; with MDA-N, more than 100 µM.
Consider `NC1C/C(=N\O)c2c(I)sc(I)c21` (centres undefined), for which the TGI in the experiment on OVCAR-8 ovarian came to 29.1 µM; with NCI-H522 lung, 3.7 µM; with HCT-116 colon, 15.2 µM; with MDA-MB-435 it was 27.2 µM; in the experiment with SF-268 CNS it was 35.3 µM; with ACHN renal it was 33.5 µM. Further, the TGI was 30.1 µM with MALME-3M melanoma; 30.6 µM in the experiment with HCT-15 colon; more than 56.6 µM with SN12C renal; 34.5 µM in the experiment on HOP-92 NSCLC; more than 54 µM with MDA-N.
On to `O=C(CN1CCN(C(=O)OCc2ccccc2)CCN(CC(=O)N2CCCCC2)CCN(C(=O)OCc2ccccc2)CC1)N1CCCCC1`, for which the TGI was 33.8 µM in the experiment on OVCAR-8 ovarian; 19 µM in the experiment with NCI-H522 lung; 18.5 µM in the experiment on HCT-116 colon; 31.2 µM in the experiment on MDA-MB-435; 31.8 µM in the experiment on SF-268 CNS; more than 54 µM in the experiment on ACHN renal. Moreover, the TGI was 23.5 µM in the experiment with MALME-3M melanoma; more than 50.6 µM in the experiment with HCT-15 colon; 26.8 µM with SN12C renal; 27.2 µM in the experiment on HOP-92 NSCLC; 29.7 µM in the experiment on MDA-N.
